Laboratory results from patent US9115082B2, “Dipeptidyl-peptidase-IV inhibitors for treatment of type 2 diabetes complex with hypertension” (priority 2012, dated 2015).

Tested on: blood glucose
Assay: oral glucose tolerance test in diet-induced obese mice
Type: in vivo, Male C57BL/6 mice
Conditions: fasted DIO mice, 1 hour before glucose (2 g/kg) challenge
Procedure: Specifically, an oral glucose tolerance test in diet-induced obese mice were conducted. Male C57BL/6 mice (6-8 weeks of age) were used. Mice were fed a lean (control group) or high-fat (DIO group) diet (5 and 35% fat by weight, respectively) for 6-9 weeks and then administered an oral glucose tolerance test. […] Blood glucose was determined at various time points from tail bleeds using a glucometer. The blood glucose response curve (AUC's, t==2 hours) are 18.7±1.6, 20.1±0.7, 21.3±11.5 for above three groups, respectively.

Compound: Cl.N#CC1CCCN1C(=O)CNCC(O)COc1ccccc1 (stereo not drawn) [compound 7, 1-(2-(2-hydroxy-3-phenoxypropylamino)acetyl)pyrrolidine-2-carbonitrile hydrochloride]
- blood glucose response curve (AUC's, t==2 hours) (3 mg/kg oral): 21.3±11.5
- blood glucose response curve (AUC's, t==2 hours) (10 mg/kg oral): 20.1±0.7
- blood glucose response curve (AUC's, t==2 hours) (30 mg/kg oral): 18.7±1.6
